# Assay results from ChEMBL document CHEMBL4229400, “Covalent inhibitors of nicotinamide N-methyltransferase (NNMT) provide evidence for target engagement challenges in situ” (Bioorg Med Chem Lett, 2018).
# Substitutions are numbered along the chain they refer to. The source made the active and inactive calls. The calls are words filed in the database; no cut-off is given here.
# Key:
# [1] = target: T1, Nicotinamide N-methyltransferase (Homo sapiens) (UniProt P40261); test: Inhibition of SAH-rhodamine binding to NNMT in human 786-O cell soluble proteomic lysate preincubated for 1 hr followed by SAH-rhodamine addition measured after 5 mins by Gel-based ABPP analysis
# T1 sequence (whole entry): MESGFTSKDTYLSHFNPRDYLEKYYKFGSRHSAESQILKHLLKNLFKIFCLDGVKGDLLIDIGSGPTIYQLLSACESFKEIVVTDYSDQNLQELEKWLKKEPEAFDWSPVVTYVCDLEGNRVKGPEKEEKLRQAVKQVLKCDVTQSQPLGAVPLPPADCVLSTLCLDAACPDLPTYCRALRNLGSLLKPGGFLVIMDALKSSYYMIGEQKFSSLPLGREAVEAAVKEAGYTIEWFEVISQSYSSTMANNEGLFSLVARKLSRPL
# [2] = test system: T2, Nicotinamide N-methyltransferase (Homo sapiens), P40261 [C165A]; test: Inhibition of NNMT C165A mutant in human 786-O cell lysate using d4-nicotinamide as substrate preincubated for 1 hr followed by substrate and SAM addition measured after 15 to 30 mins by LC-MS analysis
# T2 sequence (whole entry): T1 sequence (whole entry) with C165A
# [3] = target: T1, Nicotinamide N-methyltransferase (Homo sapiens); test: Binding affinity to NNMT C165 residue in human 786-O cell soluble proteomic lysate at 1 to 5 uM incubated for 1 hr followed by cell lysis by IA-alkyne probe based isoTOP-ABPP analysis
# [4] = target: T3, Cytoskeleton-associated protein 4 (Homo sapiens) (UniProt Q07065); test: Binding affinity to CKAP4 cysteine residue in human 786-O cell soluble proteomic lysate at 5 uM incubated for 1 hr followed by cell lysis by IA-alkyne probe based isoTOP-ABPP analysis
# T3 sequence (whole entry): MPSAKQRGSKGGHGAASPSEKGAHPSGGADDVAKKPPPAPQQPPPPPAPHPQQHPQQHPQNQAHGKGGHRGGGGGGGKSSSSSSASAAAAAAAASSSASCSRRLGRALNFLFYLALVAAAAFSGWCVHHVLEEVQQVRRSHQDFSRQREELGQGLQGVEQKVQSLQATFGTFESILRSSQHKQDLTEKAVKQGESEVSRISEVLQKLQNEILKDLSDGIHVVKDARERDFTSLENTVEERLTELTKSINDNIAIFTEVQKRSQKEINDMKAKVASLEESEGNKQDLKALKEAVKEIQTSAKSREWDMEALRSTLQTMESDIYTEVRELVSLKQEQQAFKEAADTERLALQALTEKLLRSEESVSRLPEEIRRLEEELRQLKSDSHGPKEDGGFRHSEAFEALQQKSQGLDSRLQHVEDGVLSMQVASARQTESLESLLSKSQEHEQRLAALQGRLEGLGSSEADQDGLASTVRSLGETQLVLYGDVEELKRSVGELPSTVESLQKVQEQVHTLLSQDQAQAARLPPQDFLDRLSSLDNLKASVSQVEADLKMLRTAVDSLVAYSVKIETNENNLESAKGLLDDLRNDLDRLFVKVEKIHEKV
# [5] = target: T4, Glutathione S-transferase omega-1 (Homo sapiens) (UniProt P78417); test: Binding affinity to GSTO1 C32 residue in human 786-O cell lysate at 5 uM incubated for 1 hr followed by cell lysis by IA-alkyne probe based isoTOP-ABPP analysis
# T4 sequence (whole entry): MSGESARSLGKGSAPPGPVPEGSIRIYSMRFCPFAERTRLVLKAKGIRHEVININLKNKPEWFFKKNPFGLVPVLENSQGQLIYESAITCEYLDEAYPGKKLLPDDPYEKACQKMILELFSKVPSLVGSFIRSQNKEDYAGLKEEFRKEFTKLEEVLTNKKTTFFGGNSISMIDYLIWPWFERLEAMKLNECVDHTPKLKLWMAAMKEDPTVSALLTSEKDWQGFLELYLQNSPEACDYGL
# [6] = target: T5, Heme oxygenase 2 (Homo sapiens) (UniProt P30519); test: Binding affinity to HMOX2 cysteine residue in human 786-O cell lysate at 5 uM incubated for 1 hr followed by cell lysis by IA-alkyne probe based isoTOP-ABPP analysis
# T5 sequence (whole entry): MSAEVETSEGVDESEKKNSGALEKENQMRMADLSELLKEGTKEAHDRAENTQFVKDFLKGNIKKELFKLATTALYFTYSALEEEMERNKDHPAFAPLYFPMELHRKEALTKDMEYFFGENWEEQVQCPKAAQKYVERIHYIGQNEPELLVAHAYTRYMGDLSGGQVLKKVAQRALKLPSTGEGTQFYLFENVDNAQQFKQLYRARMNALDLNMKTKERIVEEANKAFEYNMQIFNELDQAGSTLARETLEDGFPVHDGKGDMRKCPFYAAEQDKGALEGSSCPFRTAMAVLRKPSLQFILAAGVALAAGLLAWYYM
# [7] = target: T6, Thioredoxin domain-containing protein 17 (Homo sapiens) (UniProt Q9BRA2); test: Binding affinity to TXNDC17 cysteine residue in human 786-O cell lysate at 5 uM incubated for 1 hr followed by cell lysis by IA-alkyne probe based isoTOP-ABPP analysis
# T6 sequence (whole entry): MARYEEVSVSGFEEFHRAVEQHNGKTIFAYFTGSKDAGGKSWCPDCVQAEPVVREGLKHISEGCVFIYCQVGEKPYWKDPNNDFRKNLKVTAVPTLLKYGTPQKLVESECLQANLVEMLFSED
# [8] = target: T7, Sterol carrier protein 2 (Homo sapiens) (UniProt P22307); test: Binding affinity to SCP2 cysteine residue in human 786-O cell soluble proteomic lysate at 5 uM incubated for 1 hr followed by cell lysis by IA-alkyne probe based isoTOP-ABPP analysis
# T7 sequence (whole entry): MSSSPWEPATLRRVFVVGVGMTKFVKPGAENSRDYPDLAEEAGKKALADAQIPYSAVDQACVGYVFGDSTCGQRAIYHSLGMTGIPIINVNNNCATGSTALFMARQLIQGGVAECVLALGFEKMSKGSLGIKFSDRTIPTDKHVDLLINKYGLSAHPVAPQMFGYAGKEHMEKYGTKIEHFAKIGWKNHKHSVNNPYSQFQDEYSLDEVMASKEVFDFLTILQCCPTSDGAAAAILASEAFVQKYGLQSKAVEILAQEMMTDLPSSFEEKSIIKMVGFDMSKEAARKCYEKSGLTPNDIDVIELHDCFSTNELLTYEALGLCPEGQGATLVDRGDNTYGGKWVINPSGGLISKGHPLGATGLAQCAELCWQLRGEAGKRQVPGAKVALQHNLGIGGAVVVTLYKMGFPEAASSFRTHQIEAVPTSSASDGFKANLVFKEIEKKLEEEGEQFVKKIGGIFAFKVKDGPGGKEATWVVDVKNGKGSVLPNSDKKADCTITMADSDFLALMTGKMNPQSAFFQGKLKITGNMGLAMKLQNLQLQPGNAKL
SMILES,inhibition [1],inhibition [2],Activity [3],Activity [4],Activity [5],Activity [6],Activity [7],Activity [8]
CC(C)CCN(C(=O)CCl)c1cc(C(=O)NCc2cccc([N+](=O)[O-])c2)cc(C(F)(F)F)c1,Dose-dependent effect,inactive,Active,Active,Active,Active,Active,
O=C(Nc1cccnc1Cl)c1cc(N(CCCc2ccccc2)C(=O)CCl)cc(C(F)(F)F)c1,,,,,,,,Active
